According to patent publication US20040229791A1, “Compositions and methods of modulating TGF-beta activity by fatty acids” (priority 2002, published 2004):

Target: T1, TGF-β1-α2M* complex (Homo sapiens, UniProt P01023)
T1 construct: was purified from pooled citrate-treate human plasma; from tissue; host or cells: pooled citrate-treated human plasma
T1 sequence (P01023 24-1474): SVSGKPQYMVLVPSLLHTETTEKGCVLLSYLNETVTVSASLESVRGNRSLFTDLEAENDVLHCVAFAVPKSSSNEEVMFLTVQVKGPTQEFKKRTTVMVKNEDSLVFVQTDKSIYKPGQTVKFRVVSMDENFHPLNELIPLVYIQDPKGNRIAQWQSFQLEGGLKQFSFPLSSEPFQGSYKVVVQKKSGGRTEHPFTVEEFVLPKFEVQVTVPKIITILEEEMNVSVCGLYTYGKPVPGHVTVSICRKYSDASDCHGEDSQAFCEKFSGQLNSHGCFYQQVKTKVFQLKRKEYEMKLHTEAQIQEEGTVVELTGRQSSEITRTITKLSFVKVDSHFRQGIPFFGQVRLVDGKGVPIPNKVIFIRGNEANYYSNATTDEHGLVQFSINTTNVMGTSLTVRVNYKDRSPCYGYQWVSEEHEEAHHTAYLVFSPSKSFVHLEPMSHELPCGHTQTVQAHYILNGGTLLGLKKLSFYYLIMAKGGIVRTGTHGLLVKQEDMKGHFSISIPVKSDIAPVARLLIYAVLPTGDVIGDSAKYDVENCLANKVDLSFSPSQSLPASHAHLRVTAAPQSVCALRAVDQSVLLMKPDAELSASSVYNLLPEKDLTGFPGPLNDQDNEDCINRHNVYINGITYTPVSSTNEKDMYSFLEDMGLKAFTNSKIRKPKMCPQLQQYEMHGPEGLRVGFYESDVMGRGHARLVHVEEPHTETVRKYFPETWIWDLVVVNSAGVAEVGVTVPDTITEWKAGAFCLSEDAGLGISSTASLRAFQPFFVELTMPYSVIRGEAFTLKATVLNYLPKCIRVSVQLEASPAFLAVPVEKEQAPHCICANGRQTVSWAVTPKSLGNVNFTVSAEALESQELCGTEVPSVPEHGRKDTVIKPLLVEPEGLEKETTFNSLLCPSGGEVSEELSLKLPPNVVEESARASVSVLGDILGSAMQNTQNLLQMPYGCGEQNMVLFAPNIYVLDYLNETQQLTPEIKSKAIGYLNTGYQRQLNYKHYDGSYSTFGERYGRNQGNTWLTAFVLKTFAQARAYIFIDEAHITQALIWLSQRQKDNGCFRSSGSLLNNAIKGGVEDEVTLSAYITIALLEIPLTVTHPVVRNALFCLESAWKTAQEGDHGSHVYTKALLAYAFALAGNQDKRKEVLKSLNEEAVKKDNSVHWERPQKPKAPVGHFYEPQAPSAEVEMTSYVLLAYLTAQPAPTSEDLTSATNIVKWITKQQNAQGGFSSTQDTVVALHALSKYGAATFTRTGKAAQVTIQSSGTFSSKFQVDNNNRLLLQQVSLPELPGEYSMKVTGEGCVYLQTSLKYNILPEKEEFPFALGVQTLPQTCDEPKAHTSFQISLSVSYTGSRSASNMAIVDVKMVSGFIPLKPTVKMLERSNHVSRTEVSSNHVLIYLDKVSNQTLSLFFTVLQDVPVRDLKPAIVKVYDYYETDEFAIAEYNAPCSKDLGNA
Test: Inhibition of 125I-TGF-β1 and α2M* complex formation (5% non-denaturing PAGE, autoradiography)
Type: binding
Conditions: ~1 nM 125I-TGF-β1, 10 μg α2M* in 0.05 ml, 30 min room temperature, non-denaturing PAGE; read-out: IC50 for inhibiting complex formation between TGF-β1 and α2M*
Experimental: Saturated and unsaturated fatty acids are present in plasma and tissues (25,26). The effects of various concentrations of saturated fatty acids on the formation of complexes between ^125I-TGF ? β1 and ? 2M* were examined. ^125I-TGF- ? 1 (1 nM) was incubated μg/ml) in the presence of various concentrations of n-caprylic acid ([…]), lauric acid (12 carbon atoms), myristic acid (14 carbon atoms), palmitic acid (16 carbon atoms) and stearic acid (18 carbon atoms). After 30 min at room temperature, the reaction mixture was analyzed by 5% non-denaturing PAGE and autoradiography, a standard method form determining complex formation between TGF-β and α2M* (12). […] At 100 μM, it inhibited 20% of the complex formation between TGF ? β1 and α2M*. Esterification consistently abolished the inhibitory activities of the fatty acids.
Complex formation of ^125I-TGF-β and ? 2M*—The reaction mixture contained 10 μg of . α2M*, ˜1 nM of ^125I-TGF- ? 1, ^125I-TGF ? β2 or ^125I-TGF ? acids (dissolved in 100% ethanol) in 0.05 ml of 50 mM HEPES-NaOH buffer, pH 7.4. The final concentration of ethanol in the reaction mixture was 0.5%. These fatty acids and fatty acid derivatives were soluble under the experimental conditions. After 30 min at room temperature, the complex formation of ^125I-TGF- ? and. α2M* was determined by 5% non-denaturing polyacrylamide gel electrophoresis (PAGE) or by 7.5% SDS-PAGE following cross-linking by 0.6 mM DSS. After electrophoresis, the gel was stained with Coomassie blue and analyzed by autoradiography. The ^125I-TGF- ? - ? 2M* complex which co-migrated with free ? 2M* was quantified using a PhosphoImager (Fuji).

IC50: 8 ± 2 µM
Compound: CCCCC/C=C\C/C=C\C/C=C\CCCCC(=O)O [γ-linolenic acid]
